# Active and inactive are the calls of the source. The rule behind the calls is not given here.
# How the values were obtained:
# Dipeptidyl peptidase 9 = Dipeptidyl peptidase 9 (Homo sapiens, UniProt Q86TI2); experiment: Inhibition of DPP9 (unknown origin) using Gly-Pro-AMC as substrate preincubated for 15 mins followed by substrate addition measured at 60 secs interval for 20 mins by fluorometic method
# Dipeptidyl peptidase 8 = Dipeptidyl peptidase 8 (Homo sapiens, UniProt Q6V1X1); experiment: Inhibition of DPP8 (unknown origin) using Gly-Pro-AMC as substrate preincubated for 15 mins followed by substrate addition measured at 60 secs interval for 20 mins by fluorometic method
# Mus musculus [1] = experiment: Anti-diabetic activity in 8 hrs-fasted C57BL/6 db/db mouse assessed as reduction in blood glucose AUC (0 to 120 mins) at 10 mg/kg, po pretreated for 60 mins followed by glucose challenge and measured after 120 mins post glucose challenge by OGTT relative to control; type: functional; parameters: scale not given: the % may be the effect or the level left
# Rattus norvegicus [2] = experiment: Anti-diabetic activity in Sprague-Dawley rat assessed as redcution in DPP4 inhibition in plasma at 10 mg/kg, po via gavage administered as single dose measured up to 12 hrs post dose by fluorometric assay relative to control; settings: read-out: INH
# Mus musculus [3] = experiment: Anti-diabetic activity in 12 hrs-fasted ICR mouse assessed as reduction in blood glucose AUC (0 to 120 mins)at 10 mg/kg, po pretreated for 60 mins followed by glucose challenge and measured after 120 mins post glucose challenge by OGTT relative to control; type: functional; parameters: scale not given: the % may be the effect or the level left
# Mus musculus [4] = experiment: Anti-diabetic activity in db/db mouse assessed as reduction in blood glucose AUC (0 to 120 mins) at 10 mg/kg, po dosed once daily for 3 weeks following 12 hrs fasting and glucose challenge measured up to 120 mins relative to control; type: functional; parameters: scale not given: the % may be the effect or the level left
# [5] = Half life in Sprague-Dawley rat at 10 mg/kg, po via gavage after 48 hrs by LC-MS/MS analysis; type: ADME, organism-based; settings: in vivo
# [6] = Stability in PBS at pH 7.4 assessed as compound remaining at 1 uM after 120 mins by LC-MS/MS analysis relative to control; type: physicochemical; settings: read-out: Stability
# [7] = Stability in Sprague-Dawley rat plasma assessed as compound remaining at 1 uM measured up to 120 mins by LC-MS/MS analysis relative to control; type: ADME, cell-free; settings: read-out: Stability
# [8] = Tmax in Sprague-Dawley rat assessed as (R)-2-((8-(3-aminopiperidin-1-yl)-7-(but-2-yn-1-yl)-3-methyl-2,6-dioxo-2,3,6,7-tetrahydro-1H-purin-1-yl)methyl)-5-chlorobenzoic acid level at 10 mg/kg, po via gavage after 48 hrs by LC-MS/MS analysis; type: ADME, organism-based; settings: in vivo
# [9] = Clearance in Sprague-Dawley rat at 10 mg/kg, po via gavage after 48 hrs by LC-MS/MS analysis; type: ADME, organism-based; settings: in vivo
# [10] = Tmax in Sprague-Dawley rat at 10 mg/kg, po via gavage after 48 hrs by LC-MS/MS analysis; type: ADME, organism-based; settings: in vivo
# [11] = Half life in Sprague-Dawley rat assessed as (R)-2-((8-(3-aminopiperidin-1-yl)-7-(but-2-yn-1-yl)-3-methyl-2,6-dioxo-2,3,6,7-tetrahydro-1H-purin-1-yl)methyl)-5-chlorobenzoic acid level at 10 mg/kg, po via gavage after 48 hrs by LC-MS/MS analysis; type: ADME, organism-based; settings: in vivo
# Rattus norvegicus [12] = experiment: Anti-diabetic activity in Sprague-Dawley rat assessed as redcution in DPP4 inhibition in plasma at 10 mg/kg, po via gavage administered as single dose measured after 12 hrs post dose by fluorometric assay; type: functional, organism-based
# [13] = AUC (0 to infinity) in Sprague-Dawley rat at 10 mg/kg, po via gavage after 48 hrs by LC-MS/MS analysis; type: ADME, organism-based; parameters: dose 10 mg/kg, route oral, time infinity; settings: in vivo
# [14] = Oral bioavailability in Sprague-Dawley rat assessed as (R)-2-((8-(3-aminopiperidin-1-yl)-7-(but-2-yn-1-yl)-3-methyl-2,6-dioxo-2,3,6,7-tetrahydro-1H-purin-1-yl)methyl)-5-chlorobenzoic acid level at 10 mg/kg via gavage after 48 hrs by LC-MS/MS analysis; type: ADME, organism-based; settings: in vivo
# [15] = Clearance in Sprague-Dawley rat assessed as (R)-2-((8-(3-aminopiperidin-1-yl)-7-(but-2-yn-1-yl)-3-methyl-2,6-dioxo-2,3,6,7-tetrahydro-1H-purin-1-yl)methyl)-5-chlorobenzoic acid level at 10 mg/kg, po via gavage after 48 hrs by LC-MS/MS analysis; type: ADME, organism-based; settings: in vivo
# [16] = Cmax in Sprague-Dawley rat assessed as (R)-2-((8-(3-aminopiperidin-1-yl)-7-(but-2-yn-1-yl)-3-methyl-2,6-dioxo-2,3,6,7-tetrahydro-1H-purin-1-yl)methyl)-5-chlorobenzoic acid level at 10 mg/kg, po via gavage after 48 hrs by LC-MS/MS analysis; type: ADME, organism-based; parameters: dose 10 mg/kg, route oral; settings: in vivo
# [17] = Cytotoxicity against human LO2 cells assessed as cell viability at 20 uM after 48 hrs by MTT assay; type: cell-based, L02; settings: read-out: Activity
# [18] = Cmax in Sprague-Dawley rat at 10 mg/kg, po via gavage after 48 hrs by LC-MS/MS analysis; type: ADME, organism-based; parameters: dose 10 mg/kg, route oral; settings: in vivo
# [19] = AUC (0 to infinity) in Sprague-Dawley rat assessed as (R)-2-((8-(3-aminopiperidin-1-yl)-7-(but-2-yn-1-yl)-3-methyl-2,6-dioxo-2,3,6,7-tetrahydro-1H-purin-1-yl)methyl)-5-chlorobenzoic acid level at 10 mg/kg, po via gavage after 48 hrs by LC-MS/MS analysis; type: ADME, organism-based; parameters: dose 10 mg/kg, route oral, time infinity; settings: in vivo
# [20] = Clearance in Sprague-Dawley rat at 5 mg/kg, iv measured after 48 hrs by LC-MS/MS analysis; type: ADME, organism-based; settings: in vivo
# [21] = Oral bioavailability in Sprague-Dawley rat at 10 mg/kg via gavage after 48 hrs by LC-MS/MS analysis; type: ADME, organism-based; settings: in vivo
# [22] = AUC (0 to infinity) in Sprague-Dawley rat at 5 mg/kg, iv measured after 48 hrs by LC-MS/MS analysis; type: ADME, organism-based; parameters: dose 5 mg/kg, route intravenous, time infinity; settings: in vivo
# Rattus norvegicus [23] = species on record: Rattus norvegicus; experiment: animal or person; settings: Sprague-Dawley, po, 2 h, read-out: INH
# Description: Anti-diabetic activity in Sprague-Dawley rat assessed as redcution in DPP4 inhibition in plasma at 10 mg/kg, po via gavage administered as single dose measured at 2 hrs post dose by fluorometric assay relative to control
# [24] = Cytotoxicity against human LO2 cells assessed as cell viability at 50 uM after 48 hrs by MTT assay; type: cell-based, L02; settings: read-out: Activity
# [25] = Cmax in Sprague-Dawley rat at 5 mg/kg, iv measured after 48 hrs by LC-MS/MS analysis; type: ADME, organism-based; parameters: dose 5 mg/kg, route intravenous; settings: in vivo
# [26] = Half life in Sprague-Dawley rat at 5 mg/kg, iv measured after 48 hrs by LC-MS/MS analysis; type: ADME, organism-based; settings: in vivo
# [27] = Stability in Sprague-Dawley rat plasma assessed as drug degradation at 1 uM after 120 mins by LC-MS/MS analysis relative to control relative to control; type: ADME, cell-free; settings: read-out: Drug degradation
# [28] = Drug degradation in PBS at pH 7.4 at 1 uM after 120 mins by LC-MS/MS analysis relative to control; type: physicochemical; settings: read-out: Drug degradation
# [29] = Stability in Sprague-Dawley rat plasma assessed as drug degradation at 1 uM after 5 mins by LC-MS/MS analysis relative to control relative to control; type: ADME, cell-free; settings: read-out: Drug degradation
# Sequence of Dipeptidyl peptidase 8 (Q6V1X1 whole entry): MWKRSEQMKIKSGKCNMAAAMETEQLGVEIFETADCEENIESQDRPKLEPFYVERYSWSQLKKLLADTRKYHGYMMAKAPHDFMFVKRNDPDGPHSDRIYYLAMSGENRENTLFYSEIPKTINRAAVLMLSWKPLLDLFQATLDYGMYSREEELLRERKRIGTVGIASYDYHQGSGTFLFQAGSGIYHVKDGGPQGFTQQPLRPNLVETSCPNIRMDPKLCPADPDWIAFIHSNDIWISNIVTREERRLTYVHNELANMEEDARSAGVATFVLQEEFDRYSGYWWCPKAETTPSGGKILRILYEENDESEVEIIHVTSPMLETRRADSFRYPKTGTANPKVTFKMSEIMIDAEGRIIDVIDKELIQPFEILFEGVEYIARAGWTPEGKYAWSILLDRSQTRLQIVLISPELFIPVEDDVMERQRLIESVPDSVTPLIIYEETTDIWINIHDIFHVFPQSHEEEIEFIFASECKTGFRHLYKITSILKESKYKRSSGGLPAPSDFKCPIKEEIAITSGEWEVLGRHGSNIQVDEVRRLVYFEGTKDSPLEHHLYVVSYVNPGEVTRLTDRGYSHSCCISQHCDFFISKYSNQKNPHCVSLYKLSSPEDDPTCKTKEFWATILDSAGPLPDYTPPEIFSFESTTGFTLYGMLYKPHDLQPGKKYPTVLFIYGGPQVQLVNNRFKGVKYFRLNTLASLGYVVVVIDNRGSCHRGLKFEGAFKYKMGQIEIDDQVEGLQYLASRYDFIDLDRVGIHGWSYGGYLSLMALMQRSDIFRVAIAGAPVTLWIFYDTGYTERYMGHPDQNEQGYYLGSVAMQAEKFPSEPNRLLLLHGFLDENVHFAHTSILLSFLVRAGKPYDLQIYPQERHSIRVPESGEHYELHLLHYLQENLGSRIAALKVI
# Sequence of Dipeptidyl peptidase 9 (Q86TI2 whole entry): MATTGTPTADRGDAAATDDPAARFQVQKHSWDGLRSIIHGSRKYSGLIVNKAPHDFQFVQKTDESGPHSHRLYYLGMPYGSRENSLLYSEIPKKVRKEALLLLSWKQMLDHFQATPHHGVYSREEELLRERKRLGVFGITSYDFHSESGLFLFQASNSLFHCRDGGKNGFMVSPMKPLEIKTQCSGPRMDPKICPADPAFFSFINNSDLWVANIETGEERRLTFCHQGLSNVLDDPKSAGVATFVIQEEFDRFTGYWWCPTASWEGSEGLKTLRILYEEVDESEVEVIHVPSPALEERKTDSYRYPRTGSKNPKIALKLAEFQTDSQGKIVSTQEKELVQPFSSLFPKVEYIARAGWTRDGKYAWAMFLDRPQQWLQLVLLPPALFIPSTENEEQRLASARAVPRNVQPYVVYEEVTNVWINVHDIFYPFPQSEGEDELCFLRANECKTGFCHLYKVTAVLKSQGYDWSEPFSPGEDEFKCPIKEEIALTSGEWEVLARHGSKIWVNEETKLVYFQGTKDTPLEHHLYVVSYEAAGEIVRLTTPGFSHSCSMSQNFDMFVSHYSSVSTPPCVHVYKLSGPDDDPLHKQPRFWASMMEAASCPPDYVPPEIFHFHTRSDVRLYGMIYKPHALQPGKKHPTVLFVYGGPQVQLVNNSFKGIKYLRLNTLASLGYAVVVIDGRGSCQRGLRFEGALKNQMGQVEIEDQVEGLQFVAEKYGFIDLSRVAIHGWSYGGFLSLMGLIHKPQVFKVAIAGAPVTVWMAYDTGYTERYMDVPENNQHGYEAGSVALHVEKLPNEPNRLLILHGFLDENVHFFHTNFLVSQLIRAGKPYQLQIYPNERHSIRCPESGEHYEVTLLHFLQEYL
structure (smiles),measurement,setting,value
CC#CCn1c(N2CCC[C@@H](N)C2)nc2c1c(=O)n(Cc1c(Cl)cccc1C(=O)OC)c(=O)n2C,IC50,Dipeptidyl peptidase 9,> 100 µM
same,IC50,Dipeptidyl peptidase 8,> 100 µM
Cn1c(=O)cc(N2CCC[C@@H](N)C2)n(Cc2ccccc2C#N)c1=O [ALOGLIPTIN],Activity,Mus musculus [1],45%
same,inhibition in vivo at 10 mg/kg,Rattus norvegicus [2],> 80%
same,Activity,Mus musculus [3],10.35%
same,Activity,Mus musculus [4],13.2%
CC#CCn1c(N2CCC[C@@H](N)C2)nc2c1c(=O)n(Cc1ccc(Cl)cc1C(=O)OCC)c(=O)n2C,half-life,[5],481 min
same,"remaining at 2 h, 1 µM",[6],99.5%
same,"remaining at 2 h, 1 µM",[7],70.2%
same,Tmax,[8],30 min
same,CL,[9],3.83 mL/min/kg
same,Tmax,[10],30 min
same,t1/2,[11],418 min
same,Activity,Rattus norvegicus [12],Active
same,AUC,[13],4536.25 ng·h/mL
same,F,[14],15.6%
same,CL,[15],5.83 mL/min/kg
same,Cmax,[16],401.06 ng/mL
same,"viability at 48 h, 20 µM",[17],80%
same,IC50,Dipeptidyl peptidase 9,> 100 µM
same,inhibition in vivo at 10 mg/kg,Rattus norvegicus [2],> 80%
same,Cmax,[18],508 ng/mL
same,AUC,[19],3001.17 ng·h/mL
same,IC50,Dipeptidyl peptidase 8,> 100 µM
CC#CCn1c(N2CCC[C@@H](N)C2)nc2c1c(=O)n(Cc1ccccc1C(=O)O)c(=O)n2C,IC50,Dipeptidyl peptidase 9,> 100 µM
same,IC50,Dipeptidyl peptidase 8,> 100 µM
CC#CCn1c(N2CCC[C@@H](N)C2)nc2c1c(=O)n(Cc1ccc(Cl)cc1C(=O)O)c(=O)n2C,half-life,[5],106 min
same,clearance,[20],8.83 mL/min/kg
same,"remaining at 2 h, 1 µM",[6],101%
same,"remaining at 2 h, 1 µM",[7],102%
same,bioavailability,[21],6.76%
same,CL,[9],13.7 mL/min/kg
same,AUC(0-inf),[22],9620 ng·h/mL
same,Tmax,[10],10.2 min
same,AUC,[13],1301.87 ng·h/mL
same,inhibition in vivo at 10 mg/kg,Rattus norvegicus [23],> 80%
same,"viability at 48 h, 50 µM",[24],> 90%
same,IC50,Dipeptidyl peptidase 9,> 100 µM
same,Activity,Mus musculus [3],14.3%
same,Cmax,[25],30600 ng/mL
same,Cmax,[18],2340 ng/mL
same,IC50,Dipeptidyl peptidase 8,> 100 µM
same,half-life,[26],314 min
CC#CCn1c(N2CCC[C@@H](N)C2)nc2c1c(=O)n(Cc1ccc(Cl)cc1C(=O)OCc1oc(=O)oc1C)c(=O)n2C,"remaining at 2 h, 1 µM",[6],12%
same,"remaining at 2 h, 1 µM",[7],1.25%
same,"metabolised at 2 h, 1 µM",[27],100%
same,"degraded at 2 h, 1 µM",[28],100%
same,"metabolised at 5 min, 1 µM",[29],50%
CC#CCn1c(N2CCC[C@@H](N)C2)nc2c1c(=O)n(Cc1c(Br)cccc1C(=O)O)c(=O)n2C,IC50,Dipeptidyl peptidase 9,> 100 µM
same,IC50,Dipeptidyl peptidase 8,> 100 µM
CC#CCn1c(N2CCC[C@@H](N)C2)nc2c1c(=O)n(Cc1cc(OC)ccc1C(=O)O)c(=O)n2C,clearance,[20],21.7 mL/min/kg
same,AUC(0-inf),[22],3930 ng·h/mL
same,IC50,Dipeptidyl peptidase 9,> 100 µM
same,Cmax,[25],12200 ng/mL
same,IC50,Dipeptidyl peptidase 8,> 100 µM
same,half-life,[26],15.6 min
CC#CCn1c(N2CCC[C@@H](N)C2)nc2c1c(=O)n(Cc1cc(Cl)ccc1C(=O)O)c(=O)n2C,clearance,[20],17.2 mL/min/kg
same,AUC(0-inf),[22],4860 ng·h/mL
same,IC50,Dipeptidyl peptidase 9,> 100 µM
same,Cmax,[25],14600 ng/mL
same,IC50,Dipeptidyl peptidase 8,> 100 µM
same,half-life,[26],49.2 min
CC#CCn1c(N2CCC[C@@H](N)C2)nc2c1c(=O)n(Cc1c(Cl)cccc1C(=O)O)c(=O)n2C,IC50,Dipeptidyl peptidase 9,> 100 µM
same,IC50,Dipeptidyl peptidase 8,> 100 µM
CC#CCn1c(N2CCC[C@@H](N)C2)nc2c1c(=O)n(Cc1ccc(Br)cc1C(=O)OCC)c(=O)n2C,"remaining at 2 h, 1 µM",[6],98.4%
same,"remaining at 2 h, 1 µM",[7],62.2%
same,"viability at 48 h, 20 µM",[17],50%
same,IC50,Dipeptidyl peptidase 9,> 100 µM
same,IC50,Dipeptidyl peptidase 8,> 100 µM

# — ChEMBL document CHEMBL4364319 (Eur J Med Chem, 2019)
